Structures can show the parent of a compound that is named as a salt.
Test system: lipoperoxide produced in brain homogenate
Test: Inhibitory effect on lipid peroxidation in rat cerebral cortical homogenates (thiobarbituric acid method)
Assay type: biochemical
Conditions: rat cerebral cortical homogenate supernatant, 37° C. for 30 minutes, absorbance at 532 nm
Experimental: Inhibitory Effect on Lipid Peroxidation in Rat Cerebral Cortical Homogenates and Orally Treated Mice
Quantitative determination of lipoperoxide produced in brain homogenate was performed according to the method of Stocks et al. (Clin. Sci. Mol. Med. 47-215(1974)). As animals, brains of Jcl. Wistar male rats, 10-13 weeks age, were used. Rat cerebral cortices were obtained after decapitation, homogenized in an ice-cooled phosphate saline buffer (50 mM Ph 7.4) (Nichion Microhomogenizer, S-310E), centrifuged at 10,000 g for 10 minutes (Hitachi CF15D type, RT15A6 Anglerotor), and the supernatant was used in a test. This supernatant was diluted 3-fold with the same buffer. To this 1 mL were added […] of test drugs dissolved in dimethyl sulfoxide (DMSO) to the final concentration of 0.0125, 0.025, 0.05, 0.10, 0.20, 0.40, 0.80 and 1.60 μM, respectively, which was incubated at 37° C. for 30 minutes. The reaction was stopped by addition of 200 μL of 35% perchloric acid, and centrifuged at 13,000 g for 10 minutes. To 1 mL of this supernatant was added 0.5 mL of 2-thiobarbituric acid (500 mg/100 mL) dissolved in 50% acetic acid, heated to boil at 95° C. for 15 minutes, which was determined by the absorbance at 532 nm. […]

Row | IC50 [nM] | Structure (SMILES)
1 | 67 | Cc1c2c(c(C)c3c1NCC3)OC(C)(CN1CCC(c3ccccc3)CC1)C2 (centres unmarked) [Example 11, 3,5,6,7-Tetrahydro-2,4,8-trimethyl-2-[(4-phenylpiperidino)methyl]-2H-furo[2,3-f]indole]
2 | 360 | Cc1c2c(c(C)c3c1NCC3)OC(C)(CN1CCC(NC(c3ccccc3)c3ccccc3)CC1)C2 (centres unmarked) [Example 18, N-(Diphenylmethyl)-1-[(3,5,6,7-tetrahydro-2,4,8-trimethyl-2H-furo[2,3-f]indol-2-yl)methyl]-4-piperidinamine trihydrochloride]

Reference: US6872718B1, “Tricyclic dihydrobenzofuran derivatives, process for the preparation thereof and agents” (Takeda Chemical Industries, Ltd., priority 1999, dated 2005)
